In ChEMBL document CHEMBL1201862, “PubChem BioAssay data set” (2004):
Calls of active or inactive are those of the source.

Assays:
Type in all cases: functional
[1] = target: Dual specificity protein kinase CLK2 (Homo sapiens, UniProt P49760)
[2] = target: 5'-AMP-activated protein kinase catalytic subunit alpha-1 (Homo sapiens, UniProt Q13131)
[3] = target: ALK tyrosine kinase receptor (Homo sapiens, UniProt Q9UM73);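 also: ALK tested as one member of a kinase panel screen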
[4] = target: Tyrosine-protein kinase BTK (Homo sapiens, UniProt Q06187)
[5] = target: High affinity nerve growth factor receptor (Homo sapiens, UniProt P04629);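 also: NTRK1 tested as one member of a kinome-wide profiling panel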
High affinity nerve growth factor receptor, sequence (P04629 whole entry): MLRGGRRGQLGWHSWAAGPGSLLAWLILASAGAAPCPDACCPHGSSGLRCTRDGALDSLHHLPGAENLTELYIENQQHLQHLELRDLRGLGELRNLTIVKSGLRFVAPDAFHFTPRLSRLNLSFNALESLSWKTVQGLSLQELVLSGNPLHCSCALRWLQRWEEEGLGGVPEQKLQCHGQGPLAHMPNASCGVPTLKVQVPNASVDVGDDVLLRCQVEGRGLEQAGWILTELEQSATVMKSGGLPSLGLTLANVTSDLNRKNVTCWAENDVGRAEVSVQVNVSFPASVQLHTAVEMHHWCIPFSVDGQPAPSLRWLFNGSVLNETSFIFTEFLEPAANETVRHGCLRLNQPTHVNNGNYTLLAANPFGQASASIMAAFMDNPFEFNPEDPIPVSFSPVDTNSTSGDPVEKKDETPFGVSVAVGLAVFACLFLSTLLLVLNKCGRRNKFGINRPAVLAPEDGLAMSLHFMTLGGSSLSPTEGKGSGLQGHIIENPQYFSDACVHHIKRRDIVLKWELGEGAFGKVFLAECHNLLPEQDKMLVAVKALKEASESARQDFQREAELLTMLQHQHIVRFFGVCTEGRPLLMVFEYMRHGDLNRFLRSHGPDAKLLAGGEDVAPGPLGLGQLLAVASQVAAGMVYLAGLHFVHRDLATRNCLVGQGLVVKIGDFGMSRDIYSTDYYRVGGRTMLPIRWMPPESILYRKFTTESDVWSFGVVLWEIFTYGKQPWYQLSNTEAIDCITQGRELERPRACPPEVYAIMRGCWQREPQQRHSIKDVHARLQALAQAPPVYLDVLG

[6] = target: Hepatocyte growth factor receptor (Homo sapiens, UniProt P08581);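 also: kinase panel profiling across the kinome, with MET as the panel member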
[7] = target: Activated CDC42 kinase 1 (Homo sapiens, UniProt Q07912); experiment: Navigating the Kinome. Panel member name: ACK1
[8] = target: T1, Receptor-type tyrosine-protein kinase FLT3 (Homo sapiens, UniProt P36888);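 also: FLT3 was tested as one member of a kinome-wide kinase panel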
T1 sequence (P36888 whole entry): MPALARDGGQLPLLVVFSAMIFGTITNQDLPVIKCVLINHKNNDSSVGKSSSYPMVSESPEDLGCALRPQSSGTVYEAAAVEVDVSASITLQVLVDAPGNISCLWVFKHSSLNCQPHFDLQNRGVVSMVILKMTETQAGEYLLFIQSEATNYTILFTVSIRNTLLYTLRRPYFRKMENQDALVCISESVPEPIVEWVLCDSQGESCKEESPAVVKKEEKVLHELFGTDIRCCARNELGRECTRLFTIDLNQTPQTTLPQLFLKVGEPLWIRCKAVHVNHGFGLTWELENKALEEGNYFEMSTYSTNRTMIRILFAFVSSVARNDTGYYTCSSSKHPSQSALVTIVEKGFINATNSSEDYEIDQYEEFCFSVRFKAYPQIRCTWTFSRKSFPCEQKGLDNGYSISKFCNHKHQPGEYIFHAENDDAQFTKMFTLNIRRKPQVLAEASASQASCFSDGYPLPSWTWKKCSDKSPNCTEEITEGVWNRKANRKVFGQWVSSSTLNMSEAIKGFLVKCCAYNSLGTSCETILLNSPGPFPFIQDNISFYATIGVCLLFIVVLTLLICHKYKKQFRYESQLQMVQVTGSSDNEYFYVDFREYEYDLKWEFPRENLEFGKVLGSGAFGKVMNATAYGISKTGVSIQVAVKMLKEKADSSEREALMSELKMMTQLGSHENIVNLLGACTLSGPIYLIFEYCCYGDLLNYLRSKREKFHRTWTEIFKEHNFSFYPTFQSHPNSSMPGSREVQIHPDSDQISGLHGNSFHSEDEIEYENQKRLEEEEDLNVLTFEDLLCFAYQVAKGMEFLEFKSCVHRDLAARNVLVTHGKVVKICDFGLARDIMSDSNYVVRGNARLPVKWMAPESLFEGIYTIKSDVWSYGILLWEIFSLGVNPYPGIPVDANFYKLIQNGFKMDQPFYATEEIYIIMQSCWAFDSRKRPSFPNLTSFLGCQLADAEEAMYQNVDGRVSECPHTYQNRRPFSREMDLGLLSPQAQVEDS

[9] = target: Leucine-rich repeat serine/threonine-protein kinase 2 (Homo sapiens, UniProt Q5S007);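 also: value from a broad kinome-wide panel profiling study in which LRRK2 was one of the kinases tested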
Leucine-rich repeat serine/threonine-protein kinase 2, sequence (Q5S007 whole entry): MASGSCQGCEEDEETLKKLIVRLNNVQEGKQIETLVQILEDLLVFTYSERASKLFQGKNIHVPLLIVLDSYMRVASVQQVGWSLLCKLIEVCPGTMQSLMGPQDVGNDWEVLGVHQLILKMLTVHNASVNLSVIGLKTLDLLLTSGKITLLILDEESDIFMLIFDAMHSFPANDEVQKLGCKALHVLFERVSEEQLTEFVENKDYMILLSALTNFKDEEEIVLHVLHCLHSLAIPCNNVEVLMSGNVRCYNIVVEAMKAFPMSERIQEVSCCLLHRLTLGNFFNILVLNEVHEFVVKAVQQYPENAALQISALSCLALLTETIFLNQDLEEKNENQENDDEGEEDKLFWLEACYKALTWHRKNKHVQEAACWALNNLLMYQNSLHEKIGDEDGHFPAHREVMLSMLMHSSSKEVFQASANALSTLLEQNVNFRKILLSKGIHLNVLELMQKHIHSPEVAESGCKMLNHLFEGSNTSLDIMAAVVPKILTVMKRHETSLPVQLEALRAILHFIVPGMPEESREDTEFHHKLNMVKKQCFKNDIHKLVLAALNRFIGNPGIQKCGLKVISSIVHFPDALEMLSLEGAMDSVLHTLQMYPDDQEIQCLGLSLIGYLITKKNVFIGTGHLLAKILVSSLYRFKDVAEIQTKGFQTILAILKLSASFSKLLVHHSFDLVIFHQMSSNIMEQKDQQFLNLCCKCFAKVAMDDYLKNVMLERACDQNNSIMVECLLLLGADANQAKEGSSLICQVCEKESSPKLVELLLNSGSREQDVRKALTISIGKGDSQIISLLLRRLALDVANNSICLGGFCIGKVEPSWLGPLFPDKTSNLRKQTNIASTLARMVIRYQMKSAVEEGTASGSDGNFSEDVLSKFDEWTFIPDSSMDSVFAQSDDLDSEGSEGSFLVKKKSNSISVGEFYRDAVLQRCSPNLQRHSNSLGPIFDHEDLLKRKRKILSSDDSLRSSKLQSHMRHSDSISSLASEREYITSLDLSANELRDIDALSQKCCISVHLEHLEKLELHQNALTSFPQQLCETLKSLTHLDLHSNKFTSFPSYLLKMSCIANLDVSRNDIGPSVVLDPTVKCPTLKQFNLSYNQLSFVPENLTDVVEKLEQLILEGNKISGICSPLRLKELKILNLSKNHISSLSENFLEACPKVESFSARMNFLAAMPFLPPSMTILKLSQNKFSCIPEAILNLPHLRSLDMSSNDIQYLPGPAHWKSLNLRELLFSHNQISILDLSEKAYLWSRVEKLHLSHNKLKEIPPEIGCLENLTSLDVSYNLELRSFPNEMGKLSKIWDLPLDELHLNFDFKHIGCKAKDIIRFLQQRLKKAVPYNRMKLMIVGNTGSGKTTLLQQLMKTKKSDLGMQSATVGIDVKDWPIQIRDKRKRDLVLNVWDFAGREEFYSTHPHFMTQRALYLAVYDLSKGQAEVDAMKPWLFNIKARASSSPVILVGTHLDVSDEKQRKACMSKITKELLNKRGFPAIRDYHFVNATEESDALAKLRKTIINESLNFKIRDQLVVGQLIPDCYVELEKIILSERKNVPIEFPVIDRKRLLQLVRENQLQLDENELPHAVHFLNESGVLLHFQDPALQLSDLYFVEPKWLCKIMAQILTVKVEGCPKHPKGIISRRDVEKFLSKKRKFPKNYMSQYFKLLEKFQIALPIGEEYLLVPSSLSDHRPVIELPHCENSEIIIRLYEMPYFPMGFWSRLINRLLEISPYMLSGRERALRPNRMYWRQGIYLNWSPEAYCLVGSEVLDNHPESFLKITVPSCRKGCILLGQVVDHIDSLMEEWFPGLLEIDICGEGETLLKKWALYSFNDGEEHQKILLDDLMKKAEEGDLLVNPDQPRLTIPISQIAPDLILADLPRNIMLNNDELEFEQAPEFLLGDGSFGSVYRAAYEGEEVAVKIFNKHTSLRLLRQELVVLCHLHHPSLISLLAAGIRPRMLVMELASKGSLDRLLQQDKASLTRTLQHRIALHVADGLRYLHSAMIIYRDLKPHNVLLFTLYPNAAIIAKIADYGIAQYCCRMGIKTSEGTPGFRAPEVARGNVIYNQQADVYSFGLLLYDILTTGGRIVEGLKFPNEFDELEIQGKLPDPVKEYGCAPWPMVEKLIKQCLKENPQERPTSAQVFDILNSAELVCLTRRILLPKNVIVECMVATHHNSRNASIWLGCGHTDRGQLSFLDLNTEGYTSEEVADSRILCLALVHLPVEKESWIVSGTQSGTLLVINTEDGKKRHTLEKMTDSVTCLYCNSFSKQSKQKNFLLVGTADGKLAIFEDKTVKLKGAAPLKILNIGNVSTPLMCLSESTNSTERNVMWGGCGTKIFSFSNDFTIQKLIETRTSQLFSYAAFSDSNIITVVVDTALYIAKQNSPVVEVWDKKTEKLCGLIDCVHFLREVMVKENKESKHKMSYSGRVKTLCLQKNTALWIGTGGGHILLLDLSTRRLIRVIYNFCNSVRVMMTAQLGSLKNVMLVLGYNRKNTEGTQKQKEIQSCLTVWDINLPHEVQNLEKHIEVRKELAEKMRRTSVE

[10] = target: Tyrosine-protein kinase Fyn (Homo sapiens, UniProt P06241)
[11] = target: T2, Serine/threonine-protein kinase Nek2 (Homo sapiens, UniProt P51955)
T2 sequence (P51955 whole entry): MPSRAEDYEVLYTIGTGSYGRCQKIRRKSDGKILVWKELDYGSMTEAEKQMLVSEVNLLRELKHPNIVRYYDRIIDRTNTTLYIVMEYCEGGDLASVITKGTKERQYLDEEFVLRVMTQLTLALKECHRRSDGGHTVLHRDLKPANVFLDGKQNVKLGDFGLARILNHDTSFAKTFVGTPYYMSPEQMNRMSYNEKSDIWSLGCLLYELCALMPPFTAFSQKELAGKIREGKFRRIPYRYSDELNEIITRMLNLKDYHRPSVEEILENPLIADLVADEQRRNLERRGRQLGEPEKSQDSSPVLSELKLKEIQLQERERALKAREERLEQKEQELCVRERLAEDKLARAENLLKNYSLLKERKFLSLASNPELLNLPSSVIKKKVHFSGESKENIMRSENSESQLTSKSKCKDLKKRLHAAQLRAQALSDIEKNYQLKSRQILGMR

[12] = target: Vascular endothelial growth factor receptor 1 (Homo sapiens, UniProt P17948);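 also: measured within a kinome-wide profiling panel, FLT1 as the panel member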
Vascular endothelial growth factor receptor 1, sequence (P17948 whole entry): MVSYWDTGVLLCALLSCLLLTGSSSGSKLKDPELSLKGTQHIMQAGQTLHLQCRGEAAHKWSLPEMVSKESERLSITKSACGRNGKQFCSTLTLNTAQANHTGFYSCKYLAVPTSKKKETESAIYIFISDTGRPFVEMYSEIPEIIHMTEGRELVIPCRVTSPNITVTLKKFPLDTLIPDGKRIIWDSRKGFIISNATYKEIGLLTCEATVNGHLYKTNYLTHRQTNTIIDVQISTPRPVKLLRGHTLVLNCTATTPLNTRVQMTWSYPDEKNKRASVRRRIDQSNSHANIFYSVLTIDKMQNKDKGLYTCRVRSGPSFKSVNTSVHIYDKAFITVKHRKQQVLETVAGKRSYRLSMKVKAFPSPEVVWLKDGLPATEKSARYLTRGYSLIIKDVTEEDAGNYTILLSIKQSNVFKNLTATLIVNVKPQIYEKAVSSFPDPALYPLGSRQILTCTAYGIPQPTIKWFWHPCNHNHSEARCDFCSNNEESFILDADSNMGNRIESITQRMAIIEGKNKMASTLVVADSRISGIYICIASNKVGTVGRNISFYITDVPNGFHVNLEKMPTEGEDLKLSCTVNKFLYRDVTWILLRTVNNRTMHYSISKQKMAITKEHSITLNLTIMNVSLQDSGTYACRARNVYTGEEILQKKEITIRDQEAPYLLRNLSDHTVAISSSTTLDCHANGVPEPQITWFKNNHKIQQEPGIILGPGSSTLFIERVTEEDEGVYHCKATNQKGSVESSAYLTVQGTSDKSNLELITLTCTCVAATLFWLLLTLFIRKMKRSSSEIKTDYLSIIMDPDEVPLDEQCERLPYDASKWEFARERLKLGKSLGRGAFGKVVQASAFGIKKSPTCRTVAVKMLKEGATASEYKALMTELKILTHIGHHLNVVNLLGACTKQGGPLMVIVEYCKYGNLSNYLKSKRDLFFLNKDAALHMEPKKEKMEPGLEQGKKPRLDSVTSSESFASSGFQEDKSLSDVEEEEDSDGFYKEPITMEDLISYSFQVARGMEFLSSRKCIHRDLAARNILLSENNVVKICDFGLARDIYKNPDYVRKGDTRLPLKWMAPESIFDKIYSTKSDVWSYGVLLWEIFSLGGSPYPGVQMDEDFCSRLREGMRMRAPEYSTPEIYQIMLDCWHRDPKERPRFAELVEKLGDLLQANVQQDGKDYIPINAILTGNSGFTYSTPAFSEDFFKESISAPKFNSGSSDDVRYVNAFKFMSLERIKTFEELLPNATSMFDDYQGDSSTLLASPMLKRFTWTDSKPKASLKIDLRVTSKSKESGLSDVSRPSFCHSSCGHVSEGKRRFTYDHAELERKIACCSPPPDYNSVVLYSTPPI

[13] = target: BDNF/NT-3 growth factors receptor (Homo sapiens, UniProt Q16620);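 also: NTRK2 measured as one member of a broad kinome-wide kinase profiling panel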
[14] = target: Dual specificity tyrosine-phosphorylation-regulated kinase 1A (Homo sapiens, UniProt Q13627);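 also: measured against DYRK1A as one member of a broad kinome profiling panel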

| Ki [1] | Ki [2] | Ki [3] | Ki [4] | Ki [5] | Ki [6] | Ki [7] | Ki [8] | Ki [9] | Ki [10] | Ki [11] | Ki [12] | Ki [13] | Ki [14] | Compound | pKi [3] |
| --- | --- | --- | --- | --- | --- | --- | --- | --- | --- | --- | --- | --- | --- | --- | --- |
| > 3.98 µM (inactive) | 2 µM (active) | > 6.31 µM (inactive) | 3.98 µM (active) | 1 µM (active) | 0.631 µM (active) | > 3.98 µM (inactive) | > 3.16 µM (inactive) | 1.58 µM (active) | > 6.31 µM (inactive) | 1.26 µM (active) | 3.16 µM (active) | > 3.98 µM (inactive) | 0.631 µM (active) | Cc1ccc(C)c(NC(=O)c2cc(-c3ccco3)nc3ccccc23)c1 |  |
| 0.316 µM (active) | 0.794 µM (active) | 1.58 µM (active) | 0.631 µM (active) | > 3.16 µM (inactive) | 0.316 µM (active) | 1.26 µM (active) | 2.51 µM (active) | 0.251 µM (active) | > 6.31 µM (inactive) | 0.2 µM (active) | 0.316 µM (active) | > 3.98 µM (inactive) | 0.0794 µM (active) | COc1ccc(C2=NNc3cccc4c(OC)ccc2c34)cc1OC |  |

| Compound | Ki [1] | Ki [2] | Ki [3] | Ki [4] | Ki [5] | Ki [6] | Ki [7] | Ki [8] | Ki [9] | Ki [10] | Ki [11] | Ki [12] | Ki [13] | Ki [14] | pKi [3] |
| --- | --- | --- | --- | --- | --- | --- | --- | --- | --- | --- | --- | --- | --- | --- | --- |
| CN1CCC(c2c(O)cc(O)c3c(=O)cc(-c4ccccc4Cl)oc23)C(O)C1 (stereo not drawn) | > 3.16 µM (inactive) | > 2.51 µM (inactive) | 0.631 µM (active) | > 3.98 µM (inactive) | > 2.51 µM (inactive) | > 2.51 µM (inactive) | > 3.98 µM (inactive) | > 2.51 µM (inactive) | 1 µM (active) | > 3.16 µM (inactive) | > 6.31 µM (inactive) | > 2 µM (inactive) | > 3.98 µM (inactive) | 0.794 µM (active) | 6.2 |
